The Ki is a measure of affinity in units of concentration, obtained from inhibition or displacement.

The text below walks through data of publication PMC3556730 (Neuropharmacology, 2011).

Experiment [1] concerns the target T1, 5-HT2AR (Homo sapiens, UniProt P28223). Conditions: HEK-5HT2AR; vehicle; mean ± SEM.
Experiment [2] has as its target T1, 5-HT2AR. Conditions: for Emax (inositol phosphate production): HEK-5HT2AR-D2R, mean ± SEM; for Effect on 5-HT-induced 5-HT2AR-IP3 production / Effect on DOI-induced 5-HT2AR-IP3 production: co-expressing cells, D2R agonist 10^−5 M.
The target of experiment [3] is 5-HT2AR (Mus musculus, UniProt P35363). Kind of experiment: [3H]Ketanserin competition binding, mouse striatum membranes.
5-HT2AR (Mus musculus, UniProt P35363), sequence (P35363 whole entry): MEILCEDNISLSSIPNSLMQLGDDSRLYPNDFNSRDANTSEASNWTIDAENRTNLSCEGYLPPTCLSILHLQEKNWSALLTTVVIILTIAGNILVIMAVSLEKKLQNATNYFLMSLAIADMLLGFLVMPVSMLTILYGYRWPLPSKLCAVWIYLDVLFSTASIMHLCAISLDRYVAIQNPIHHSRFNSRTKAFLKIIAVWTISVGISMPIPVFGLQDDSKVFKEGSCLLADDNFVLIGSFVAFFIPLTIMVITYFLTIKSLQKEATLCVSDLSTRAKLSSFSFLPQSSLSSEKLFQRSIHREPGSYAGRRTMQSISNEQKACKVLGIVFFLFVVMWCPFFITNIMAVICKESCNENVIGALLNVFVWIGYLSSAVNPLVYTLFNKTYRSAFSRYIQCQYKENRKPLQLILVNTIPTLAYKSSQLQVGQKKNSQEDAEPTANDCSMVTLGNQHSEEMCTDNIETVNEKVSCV
Experiment [4] has as its system MK-801-induced locomotor activity. The experiment in a line: MK-801-induced locomotor activity in wild-type and 5-HT2AR-KO mice. The format is in vivo. The conditions noted are these: MK-801 0.5 mg/kg i.p.; wild-type and 5-HT2AR-KO mice (similar).
Experiment [5] deals with T1, 5-HT2AR.
Experiment [6] concerns the target T1, 5-HT2AR. Conditions: HEK-5HT2AR.
Setting [7] is: mouse striatum, with quinpirole (10^−5 M).

The structures appear in SMILES notation. Where two headings read alike, the source gives them in different places.

T1 sequence (P28223 whole entry): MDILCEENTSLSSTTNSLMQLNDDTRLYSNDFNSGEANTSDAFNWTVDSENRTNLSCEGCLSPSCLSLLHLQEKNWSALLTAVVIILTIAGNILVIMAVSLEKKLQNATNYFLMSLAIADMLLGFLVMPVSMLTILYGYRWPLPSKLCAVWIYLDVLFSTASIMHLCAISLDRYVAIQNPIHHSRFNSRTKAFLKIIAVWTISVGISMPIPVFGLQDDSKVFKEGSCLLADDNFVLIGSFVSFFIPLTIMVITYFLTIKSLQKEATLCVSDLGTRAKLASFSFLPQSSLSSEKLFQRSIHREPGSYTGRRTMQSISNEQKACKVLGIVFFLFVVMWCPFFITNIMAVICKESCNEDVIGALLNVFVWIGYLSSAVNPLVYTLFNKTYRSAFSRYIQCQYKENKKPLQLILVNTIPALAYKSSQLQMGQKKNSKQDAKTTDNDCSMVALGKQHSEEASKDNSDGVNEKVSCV

For the molecule `NCCc1c[nH]c2ccc(O)cc12` [5-HT, serotonin], the “Emax (inositol phosphate production)” value on 5-HT2AR [1] is 647 ± 74 cpm; on 5-HT2AR [2] (vehicle), 608 ± 12 cpm; at 5-HT2AR [2] (with quinpirole (10^−5 M)) it was 589 ± 22 cpm; at 5-HT2AR [2] (with ropinirole (10^−5 M)) it was 564 ± 47 cpm.
Regarding `CCN1CCC[C@H]1CNC(=O)c1c(O)c(Cl)cc(Cl)c1OC` [raclopride], on 5-HT2AR [3] (setting [7]), the “Effect on quinpirole-enhanced DOI affinity for 5-HT2AR” value is “prevents the enhanced effect”.
With `C[C@]12N[C@H](Cc3ccccc31)c1ccccc12` [MK-801, dizocilpine], the Locomotor activity entry in experiment [4] is on record as “increased locomotor activity”.
For the molecule `CCCN1CCC[C@@H]2Cc3n[nH]cc3C[C@H]21` [quinpirole], the “Effect on affinity of DOI for 5-HT2AR” value on 5-HT2AR [5] (HEK293 co-expressing 5-HT2AR and D2R, modulator 10^−5 M) is reported as “marked increase”. Besides, on 5-HT2AR [2], the “Effect on 5-HT-induced 5-HT2AR-IP3 production” value is reported as “have no effect” and the “Effect on DOI-induced 5-HT2AR-IP3 production” value is on record as “decrease”. Also, the “Effect on affinity of DOI for 5-HT2AR” value at 5-HT2AR [3] (mouse striatum, modulator 10^−5 M) is given as “significantly higher”.
Consider `CCCN(CCC)CCc1cccc2c1CC(=O)N2` [ropinirole], for which, on 5-HT2AR [2], the “Effect on 5-HT-induced 5-HT2AR-IP3 production” value was “have no effect” and the “Effect on DOI-induced 5-HT2AR-IP3 production” value is “decrease”.
In the case of `COc1cc(CC(C)N)c(OC)cc1I` (racemic) [DOI, (+/−)-2,5-dimethoxy-4-iodoamphetamine], the “% High (percentage of high-affinity binding sites)” value at 5-HT2AR [5] (HEK-5HT2AR-D2R, with quinpirole (10^−5 M)) worked out at 46 ± 3%; on 5-HT2AR [3] (setting [7]), 44 ± 2%; at 5-HT2AR [6] (vehicle), 41 ± 5%; on 5-HT2AR [6] (with quinpirole (10^−5 M)) it was 48%. Besides, the Ki at 5-HT2AR [3] (Fig. 1C single experiment, control, one-site model) worked out at 95 nM; on 5-HT2AR [3] (Fig. 1D single experiment, control, one-site model) it was 3300 nM; at 5-HT2AR [3] (read-out: Ki-high, mouse striatum, with quinpirole (10^−5 M), two-site model, mean ± SEM), 0.065 nM; on 5-HT2AR [3] (read-out: Ki-low, mouse striatum, vehicle, one-site model, mean ± SEM) it was 250 nM; at 5-HT2AR [3] (read-out: Ki-low, mouse striatum, with quinpirole (10^−5 M) + raclopride (10^−6 M), one-site model, mean ± SEM), 690 nM; at 5-HT2AR [3] (read-out: Ki-low, mouse striatum, with quinpirole (10^−5 M), two-site model, mean ± SEM), 510 nM. Besides, the Ki on 5-HT2AR [3] (read-out: Ki-low, mouse striatum, with raclopride (10^−6 M), one-site model, mean ± SEM) is 660 nM.
